Experiments:
Leishmania [1] = test: Leishmaniasis serology: quantitative anti-Leishmania immunofluorescence; type: in vivo, dog; set-up: key: +: IF: Immunofluorescence (considered positive if the titer is ≧1/100); − = absence; conditions: healthy dogs vaccinated with peptide(s) 50 μg + muramyl dipeptide 100 μg; analyses 2 months and 12 months after the infectious test
Excerpt: In parallel to the study of the specific activation of the T lymphocytes the Th1 type by intradermoreaction, dosage of the NO (NO is synthesized by monocytes activated by the cytokines of the T cells of the Th1 type) and lymphocyte proliferation, a serological monitoring by traditional immunofluorescence using strips coated with the promastigotes (serological reference method for canine leishmaniasis) is done.
(§1) The biological analyses consist of: • biochemical analyses: urea, creatine, transaminases • hematological analyses: count, formula • serology leishmaniasis: quantitative anti-Leishmania immunofluorescence, dosage by the ELISA method of IgG2s specific to the peptides A16E and/or A16G • cellular response tests: IDR test (IntraDermoReaction) done with leishmanines and also with A16E and A16G peptides, dosage of NO and lymphoblastic proliferation.

[2] = tested on: IgG2 specific to the peptides A16E and/or A16G; test: ELISA detection of IgG2 specific to the peptides A16E and A16G; type: in vivo, dog; conditions: vaccinated dogs, ELISA towards the corresponding peptides; for SEROLOGY ELISA IgG2 (positive/negative): 2 months and 12 months after the infectious test; for SEROLOGY ELISA IgG2 (optical density): cut off 0.300 OD
Excerpt: Detection of immunoglobulins of the isotype IgG2 of dogs, specifically of the peptides A16E and A16G and their derivatives:
This detection is done by the ELISA method according to the microtitration technique of Kweider et al (J. Immunol. 1987, 138, 299) using a bonded anti IgG2. For this method, the peptides are biotinylated prior to coating on microplates.
as §1

Leishmania [3] = test: Parasitemy: direct exam of bone marrow smear and cultivation on NNN medium; type: in vivo, dog; set-up: key: − = absence; conditions: vaccinated dogs, 2 months and 12 months after the infectious test
Excerpt: A parasitological exam was done from the sample taken directly from the candidate studied, a dog, for example.
A smear of a puncture of the bone marrow is made on a slide. This smear, fixed once by methanol, is stained with May-Grünwald-Geimsa and observed by an immersion microscope (x 1000).
Samples of the bone marrow are brought under cultivation in the biphase cultivation medium NNN (Novy and Mac Neal, 1904, 4. Infec. Dis., 1:1-30), of which RPMI 1640 supplemented with 20% decomplemented fetal calf serum constitutes the liquid phase. The blind subculturings were done every four to six days. The cultures are regularly observed in a photon microscope (×400) for 20 min.
The parasitemy was quantified as follows:
The infectious examination consists in intravenously injecting 106 treated promastigotes in metacyclic phase in the complement of a healthy dog and 5.106 peritoneal macrophages of a healthy dog, infected in vitro by the amastigotes.
The promastigotes and infected macrophages are diluted in sterile physiological serum for a final volume of 1.5 ml. This mixture is made just prior to injection.
To these analyses must be added the search for Leishmania by direct observation in a microscope and cultivation on NNN medium from bone marrow after the infectious test.

[4] = tested on: cell-mediated immunity of the Th1 type; test: Intra Dermo Reaction (IDR) test; type: in vivo, dog; conditions: vaccinated dogs, 2 months after the infectious test; for IDR A16E: IDR done with peptide A16E; for IDR A16G: IDR done with peptide A16G; for IDR Leishmanines: read 48 h after intradermoinjection
Method: Evidence of the involvement of a cell-mediated immunity of the Th1 type:
Leishmanias of the promastigote forms are cultivated in the standard culture media. Parasites are harvested from the end of the exponential phase (6-7 days). The parasitic residue is washed three times by centrifugation (2500 g, […], 4° C.) in a PBS buffer.
After having verified the viability of the parasites using a vital stain (Trypan Blue), a suspension containing […] parasites per ml is inactivated in a PBS buffer containing 0.01% merthiolate (Pinelli et al., 1994, Infect. Immun., 62: 229-235). This constitutes the leishmanias for the intradermoreaction test (IDR).
Dogs are placed in lateral decubitus and a delicate and non-irritating shearing is done on the thoracic zone approximately 5 cm by 10 cm behind the elbow. Four circles 10 mm in diameter are marked using a felt-tip pen.
Into the center of the circles, 0.1 ml of solution is injected in an intradermo-injection. Two circles receive the solution of leishmanias and the 2 other circles receive the saline methiolated solution in the negative control. The reading of the Intra Dermo Reaction (IDR) is done 48 hours later using an allergologic gauge.
The test is considered positive if the mean of the two observed induration diameters is greater than or equal to 5 mm. The observation of an erythema without induration will be considered to be a negative test (Pinelli et al., 1994, Infect. Immun., 62: 229-235; Marty et al., 1994, Trans. Roy. Soc. Trop. Med. Hyg., 88, 658-659).
The IDRs can also be performed with a solution of peptides A16E and A16G or their derivatives and MDP, for example, in proportions of 10 μg of peptides for 20 μg of MDP.

[5] = tested on: peripheral blood mononuclear cells (PBMC); test: Lymphocyte (lymphoblastic) proliferation test; type: cell-based, dog; conditions: vaccinated dogs; 2 months after the infectious test
Method: Next, a test is done on the lymphocyte proliferation.
The peripheral blood mononuclear cells (PBMC) of dogs are separated on the Ficoll gradient (density 1.078) by centrifugation at 800 g for 20 mn at ambient temperature. These cells are brought under cultivation on a plate having 96 wells at a concentration of 2.10^5 cells per well in the presence of 2 μg per ml of Concanavalin A (Sigma), 5 μg per ml of ES P (excretion—secretion promastigotes) or […] of supernatants of culture harvested in the stationary phase of growth of promastigotes (SP) per well, and in the absence of any additive in a volume of […] of the medium RPMI 1640 containing 5% decomplemented fetal calf serum, 2 mM of L-glutamine, 100 U of penicillin per ml, […] of streptomycin per ml. The optimal antigen and mitogen concentrations have been determined in prior experiments. […] The cells are harvested over a filter and the incorporation of the radioactivity is determined by counting in a scintillating liquid (β-counter). […]
The lymphocytary proliferation has also been estimated by visual readings in a photon microscope (−: negative; +/−: slight proliferation; +: little proliferation less than 5 points per microscopic field; ++: mean proliferation greater than 5 points; +++: strong proliferation).

| Substance | SEROLOGY IF Quantitative (Leishmania [1]) | SEROLOGY ELISA IgG2 (positive/negative) [2] | SEROLOGY ELISA IgG2 (optical density) [2] [OD] | Cultivation on NNN Medium (Leishmania [3]) | PARASITEMY Direct Exam (Leishmania [3]) | IDR A16E [4] | IDR A16G [4] | IDR Leishmanines [4] | Lymphoblastic Proliferation Test, reading in a photon microscope [5] |
| --- | --- | --- | --- | --- | --- | --- | --- | --- | --- |
| A-A-R-S-A-R-S-R-E-G-Y-S-L-T-D-E [A16E, 16 amino acid peptide specific to Leishmania] | − | + (ELISA: Cut off = 0.300 OD (optical density)) | 0.700 | − | − | + (The Intra Dermo Reaction test is considered positive (+) if the induration is ≧5 mm 48 h. after intradermoinjection) | Limit | + (The Intra Dermo Reaction test is considered positive (+) if the induration is ≧5 mm 48 h. after intradermoinjection) | + (little proliferation less than 5 points per microscopic field) |
| A-A-S-S-T-P-S-P-G-S-G-C-E-V-D-G [A16G, 16 amino acid peptide specific to Leishmania] | − | + (ELISA: Cut off = 0.300 OD (optical density)) | 0.520 | − | − | Limit | + (The Intra Dermo Reaction test is considered positive (+) if the induration is ≧5 mm 48 h. after intradermoinjection) | + (The Intra Dermo Reaction test is considered positive (+) if the induration is ≧5 mm 48 h. after intradermoinjection) | ++ (mean proliferation greater than 5 points) |

From patent US20050079186A1, “Therapeutic vaccine peptide complex for preventing and treating disorders in mammals” (ORIDAN, Inc., priority 2001, published 2005)
